Legend:
[1] = target: isolated recombinant JAK2 kinase domain (Homo sapiens, UniProt O60674); test: JAK enzyme assay (Caliper LabChip), JAK2 kinase domain; conditions: ATP 25 μM, 0.2 nM JAK2, Morrison tight binding model
Protocol: JAK Enzyme Assays were Carried Out as Follows:
The activity of the isolated recombinant JAK1 and JAK2 kinase domain was measured by monitoring phosphorylation of a peptide derived from JAK3 ([sequence] fluorescently labeled on the N-terminus with 5-carboxyfluorescein) using the Caliper LabChip® technology (Caliper Life Sciences, Hopkinton, Mass.). […] Reactions were incubated at 22° C. in 384-well polypropylene microtiter plates for 30 minutes and then stopped by addition of 25 μL of an EDTA containing solution (100 mM HEPES buffer (pH 7.2), 0.015% Brij-35, 150 mM EDTA), resulting in a final EDTA concentration of 50 mM. After termination of the kinase reaction, the proportion of phosphorylated product was determined as a fraction of total peptide substrate using the Caliper LabChip® 3000 according to the manufacturer's specifications.

[2] = test system: JAK1-dependent STAT6 phosphorylation downstream of IL-13 stimulation, BEAS-2B cells; test: JAK1 pathway assay in cell lines: P-STAT6 in BEAS-2B cells + IL13; format: cell-based; conditions: Homo sapiens, BEAS-2B, 1 h, BEAS-2B human bronchial epithelial cells, 1 hr compound preincubation, read-out: P-STAT6 BEAS2B + IL13 IC50
Protocol: JAK1 Pathway Assay in Cell Lines was Carried Out as Follows:
Inhibitor potency (EC50) was determined in cell-based assays designed to measure JAK1 dependent STAT phosphorylation. As noted above, inhibition of IL-4, IL-13, and IL-9 signaling by blocking the Jak/Stat signaling pathway can alleviate asthmatic symptoms in pre-clinical lung inflammation models (Mathew et al., 2001, J Exp Med 193(9): 1087-1096; Kudlacz et. al., 2008, Eur J. Pharmacol 582(1-3): 154-161).
In one assay approach, TF-1 human erythroleukemia cells obtained from the American Type Culture Collection (ATCC; Manassas, Va.) were used to measure JAK1-dependent STAT6 phosphorylation downstream of IL-13 stimulation. Prior to use in the assays, TF-1 cells were starved of GM-CSF overnight in OptiMEM medium (Life Technologies, Grand Island, N.Y.) supplemented with 0.5% charcoal/dextran stripped fetal bovine serum (FBS), 0.1 mM non-essential amino acids (NEAA), and 1 mM sodium pyruvate. The assays were run in 384-well plates in serum-free OptiMEM medium using 300,000 cells per well. In a second assay approach, BEAS-2B human bronchial epithelial cells obtained from ATCC were plated at 100,000 cells per well of a 96-well plate one day prior to the experiment. The BEAS-2B assay was run in complete growth medium (bronchial epithelial basal medium plus bulletkit; Lonza; Basel, Switzerland).
Test compounds were serially diluted 1:2 in DMSO and then diluted 1:50 in medium just before use. Diluted compounds were added to the cells, for a final DMSO concentration of 0.2%, and incubated for 30 m (for the TF-1 assay) or 1 hr (for the BEAS-2B assay) at 37° C. Then, cells were stimulated with human recombinant cytokine at their respective EC90 concentrations, as previously determined for each individual lot. Cells were stimulated with […] (R&D Systems, Minneapolis, Minn.) for 15 m/at 37° C. The TF-1 cell reactions were stopped by the direct addition of 10× lysis buffer (Cell Signaling Technologies, Danvers, Mass.), whereas the BEAS-2B cell incubations were halted by the removal of medium and addition of 1× lysis buffer. The resultant samples were frozen in the plates at −80° C. Compound mediated inhibition of STAT6 phosphorylation was measured in the cell lysates using MesoScale Discovery (MSD) technology (Gaithersburg, Md.). EC50 values were determined as the concentration of compound required for 50% inhibition of STAT phosphorylation relative to that measured for the DMSO control.

[3] = target: isolated recombinant JAK1 kinase domain (Homo sapiens, UniProt P23458); test: JAK enzyme assay (Caliper LabChip), JAK1 kinase domain; format: biochemical; conditions: ATP 25 μM; 1.5 nM JAK1; Morrison tight binding model
Chain of isolated recombinant JAK1 kinase domain (P23458 875-1153 limits assumed): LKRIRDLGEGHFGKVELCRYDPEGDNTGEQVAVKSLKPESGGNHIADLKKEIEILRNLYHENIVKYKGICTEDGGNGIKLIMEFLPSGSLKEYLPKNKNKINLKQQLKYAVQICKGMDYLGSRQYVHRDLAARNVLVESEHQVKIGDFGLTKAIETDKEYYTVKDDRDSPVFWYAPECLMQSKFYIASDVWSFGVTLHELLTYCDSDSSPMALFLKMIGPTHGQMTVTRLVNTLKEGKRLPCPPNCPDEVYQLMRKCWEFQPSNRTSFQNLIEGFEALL

Chain of isolated recombinant JAK2 kinase domain (O60674 849-1124 limits assumed): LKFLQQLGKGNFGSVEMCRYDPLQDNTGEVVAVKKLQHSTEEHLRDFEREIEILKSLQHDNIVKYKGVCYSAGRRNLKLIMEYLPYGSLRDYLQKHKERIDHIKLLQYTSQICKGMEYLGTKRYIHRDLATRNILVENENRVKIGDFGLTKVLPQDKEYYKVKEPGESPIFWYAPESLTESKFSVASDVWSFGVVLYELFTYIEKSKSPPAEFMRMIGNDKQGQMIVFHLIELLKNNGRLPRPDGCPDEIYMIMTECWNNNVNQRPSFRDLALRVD

Row | Compound | Ki [1] | Ki [3] | IC50 [2]
1 | O=C(Nc1cn(C2CN(C3COC3)C2)nc1-c1cc(SC2COC2)ccc1OC(F)F)c1cnn2cccnc12 [Example 35, N-[3-[2-(difluoromethoxy)-5-(oxetan-3-ylsulfanyl)phenyl]-1-[1-(oxetan-3-yl)azetidin-3-yl]pyrazol-4-yl]pyrazolo[1,5-a]pyrimidine-3-carboxamide] | 0.9 nM | 1.14 nM | 42 nM
2 | CSc1ccc(OC(F)F)c(-c2nn(CC(=O)N(C)C)cc2NC(=O)c2cnn3cccnc23)c1 [Example 44] | 0.24 nM | 0.17 nM | 10 nM
3 | CNC(=O)Cn1cc(NC(=O)c2cnn3cccnc23)c(-c2cc(SC)ccc2OC(F)F)n1 [Example 45, N-[3-[2-(difluoromethoxy)-5-methylsulfanyl-phenyl]-1-[2-(methylamino)-2-oxo-ethyl]pyrazol-4-yl]pyrazolo[1,5-a]pyrimidine-3-carboxamide] | 0.21 nM | 0.21 nM | 8 nM
4 | C[C@H](O)Cn1cc(Sc2ccc(OC(F)F)c(-c3nn(CC(=O)N(C)C)cc3NC(=O)c3cnn4cccnc34)c2)cn1 [Example 46, (S)-N-(3-(2-(difluoromethoxy)-5-((1-(2-hydroxypropyl)-1H-pyrazol-4-yl)thio)phenyl)-1-(2-(dimethylamino)-2-oxoethyl)-1H-pyrazol-4-yl)pyrazolo[1,5-a]pyrimidine-3-carboxamide] | 1.28 nM | 1.24 nM | 223 nM
5 | CN(C)C(=O)Cn1cc(NC(=O)c2cnn3cccnc23)c(-c2cc(SCC(F)(F)F)ccc2OC(F)F)n1 [Example 47, N-(3-(2-(difluoromethoxy)-5-((2,2,2-trifluoroethyl)thio)phenyl)-1-(2-(dimethylamino)-2-oxoethyl)-1H-pyrazol-4-yl)pyrazolo[1,5-a]pyrimidine-3-carboxamide] | 0.78 nM | 0.18 nM | 15 nM
6 | CN(C)C(=O)Cn1cc(NC(=O)c2cnn3cccnc23)c(-c2cc([S+](C)[O-])ccc2OC(F)F)n1 (stereo not drawn) [Example 48, N-(3-(2-(difluoromethoxy)-5-(methylsulfinyl)phenyl)-1-(2-(dimethylamino)-2-oxoethyl)-1H-pyrazol-4-yl)pyrazolo[1,5-a]pyrimidine-3-carboxamide] | 4.44 nM | 1.35 nM | 518 nM
7 | CN(C)C(=O)Cn1cc(NC(=O)c2cnn3cccnc23)c(-c2cc(S(C)(=O)=O)ccc2OC(F)F)n1 [Example 49, N-(3-(2-(difluoromethoxy)-5-(methylsulfonyl)phenyl)-1-(2-(dimethylamino)-2-oxoethyl)-1H-pyrazol-4-yl)pyrazolo[1,5-a]pyrimidine-3-carboxamide] | 0.79 nM | 0.45 nM | 214 nM
8 | CN(C)C(=O)Cn1cc(NC(=O)c2cnn3cccnc23)c(-c2cc(S(=O)(=O)C(F)F)ccc2OC(F)F)n1 [Example 50, N-(3-(2-(difluoromethoxy)-5-((difluoromethyl)sulfonyl)phenyl)-1-(2-(dimethylamino)-2-oxoethyl)-1H-pyrazol-4-yl)pyrazolo[1,5-a]pyrimidine-3-carboxamide] | 0.56 nM | 0.3 nM | 38 nM

The next lines start with results.

Row | Ki [1] | Ki [3] | Compound | IC50 [2]
9 | 0.39 nM | 1.02 nM | CC(=O)N1CCC(Sc2ccc(OC(F)F)c(-c3n[nH]cc3NC(=O)c3cnn4cccnc34)c2)CC1 [Example 34, N-[3-[5-[(1-acetyl-4-piperidyl)sulfanyl]-2-(difluoromethoxy)phenyl]-1H-pyrazol-4-yl]pyrazolo[1,5-a]pyrimidine-3-carboxamide] | 251 nM
10 | 0.72 nM | 0.34 nM | O=C(Nc1cn(CC(=O)N2CCC(N3CCOCC3)CC2)nc1-c1cc(SC(F)F)ccc1OC(F)F)c1cnn2cccnc12 [Example 42, N-[3-[2-(difluoromethoxy)-5-(difluoromethylsulfanyl)phenyl]-1-[2-(4-morpholino-1-piperidyl)-2-oxo-ethyl]pyrazol-4-yl]pyrazolo[1,5-a]pyrimidine-3-carboxamide] | 23 nM
11 | 0.15 nM | 0.32 nM | COC(=O)CSc1ccc(OC(F)F)c(-c2n[nH]cc2NC(=O)c2cnn3cccnc23)c1 [Example 43, methyl 2-[4-(difluoromethoxy)-3-[4-(pyrazolo[1,5-a]pyrimidine-3-carbonylamino)-1H-pyrazol-3-yl]phenyl]sulfanylacetate] | 37 nM

Source: US20220024945A1, “THERAPEUTIC COMPOUNDS AND COMPOSITIONS, AND METHODS OF USE THEREOF” (Genentech, Inc., priority 2017, published 2022)
